This passage reports IC50 results from US20250197403A1, “HETEROARYL COMPOUNDS FOR TREATMENT OF COMPLEMENT FACTOR D MEDIATED DISORDERS” (Achillion Pharmaceuticals, Inc., priority 2020, published 2025).

Bounds are passed on as bounds.

A word on the IC50: it is the concentration that inhibits the measured activity by half. A low value points to higher potency.

In this experiment the target is Human Factor D (Homo sapiens (Human), UniProt P00746). The experiment in a line: Human Factor D Assay. Type of experiment: biochemical. The conditions noted are these: Human Factor D 80 nM, substrate Z-L-Lys-SBzl, assay according to Example 3. The method in brief: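 Serum-purified factor D (80 nM final) preincubated with compound 5 min at room temperature in 50 mM Tris, 1M NaCl, pH 7.5. Z-L-Lys-SBzl substrate and DTNB added at 100 μM each; A405 read every 30 s for 30 min. IC50 from nonlinear regression of reaction rates versus compound concentration.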
Sequence of Human Factor D (P00746 26-253): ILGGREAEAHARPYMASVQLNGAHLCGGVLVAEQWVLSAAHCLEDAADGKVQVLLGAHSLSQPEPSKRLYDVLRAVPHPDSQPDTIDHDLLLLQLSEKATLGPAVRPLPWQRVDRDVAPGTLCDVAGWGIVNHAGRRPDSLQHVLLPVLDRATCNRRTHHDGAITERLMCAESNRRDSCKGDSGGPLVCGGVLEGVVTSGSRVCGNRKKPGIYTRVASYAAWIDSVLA
As to `CC(=O)c1cn(CC(=O)N2C[C@H]3C[C@H]3[C@H]2C(=O)N[C@@H](C)C(F)=C(C)C)c2c(C)cc(-c3cnc4cc(C)nn4c3)cc12` [Compound 38, (1R,2S,5S)-3-(2-(3-acetyl-7-methyl-5-(2-methylpyr-azolo[1,5-a]pyrimidin-6-yl)-1H-indol-1-yl)acetyl)-N-((S)-3-fluoro-4-methyl-pent-3-en-2-yl)-3-azabi-cyclo[3.1.0]hexane-2-car-boxamide], the IC50 was < 1000 nM.

Consider `CC(=O)c1cn(CC(=O)N2[C@H](C(=O)N[C@@H](C)C(F)=C(C)C)C[C@@]3(C)C[C@@H]23)c2c(C)nc(-c3cnc(C)nc3)cc12` [Compound 39, (1R,3S,5R)-2-(2-(3-acetyl-7-methyl-5-(2-methylpyr-imidin-5-yl)-1H-pyrrolo [2,3-c]pyridin-1-yl)acetyl)-N-((S)-3-fluoro-4-methyl-pent-3-en-2-yl)-5-methyl-2-azabicyclo[3.1.0]hexane-3-carboxamide], for which the IC50 was < 1000 nM.

Regarding `COCc1ccc(C(F)(F)F)nc1NC(=O)[C@@H]1C[C@@]2(C)C[C@H]2N1C(=O)Cn1cc(C(C)=O)c2cc(-c3ccc4nc(C)nn4c3)cc(C)c21` [Compound 40, (1R,3S,5R)-2-(2-(3-acetyl-7-methyl-5-(2-methyl-[1,2,4]triazolo[1,5-a]pyr-idin-6-yl)-1H-indol-1-yl)-acetyl)-N-(3-(methoxy-methyl)-6-(trifluorometh-yl)pyridin-2-yl)-5-methyl-2-azabicyclo[3.1.0]hexane-3-carboxamide], the IC50 is < 1000 nM.

On to `COCc1ccc(C(F)(F)F)nc1NC(=O)[C@@H]1C[C@@]2(C)C[C@H]2N1C(=O)Cn1cc(C(C)=O)c2cc(-c3cnc(C)nc3)nc(C)c21` [Compound 41, (1R,3S,5R)-2-(2-(3-acetyl-7-methyl-5-(2-methylpyr-imidin-5-yl)-1H-pyrrolo [2,3-c]pyridin-1-yl)acetyl)-N-(3-(methoxymethyl)-6-(trifluoromethyl)pyridin-2-yl)-5-methyl-2-azabicyclo [3.1.0]hexane-3-carbox-amide], for which the IC50 was < 1000 nM.

In the case of `CC(=O)c1cn(CC(=O)N2[C@H](C(=O)Nc3nc(C(F)(F)F)ccc3Cl)C[C@@]3(C)C[C@@H]23)c2c(C)nc(-c3cnc(C)nc3)cc12` [Compound 42, (1R,3S,5R)-2-(2-(3-acetyl-7-methyl-5-(2-methylpyr-imidin-5-yl)-1H-pyrrolo [2,3-c]pyridin-1-yl)acetyl)-N-(3-chloro-6-(trifluoro-methyl)pyridin-2-yl)-5-methyl-2-azabicyclo[3.1.0] hexane-3-carboxamide], the IC50 is < 1000 nM.

In the case of `CC(=O)c1cn(CC(=O)N2[C@H](C(=O)Nc3nc(C(F)(F)F)ccc3C)C[C@@]3(C)C[C@@H]23)c2c(CO)cc(-c3cnc4cc(C)nn4c3)cc12` [Compound 43, (1R,3S,5R)-2-(2-(3-acetyl-7-(hydroxymethyl)-5-(2-methylpyrazolo[1,5-a]pyr-imidin-6-yl)-1H-indol-1-yl)acetyl)-5-methyl-N-(3-methyl-6-(trifluorometh-yl)pyridin-2-yl)-2-azabi-cyclo[3.1.0]hexane-3-car-boxamide], the IC50 was < 1000 nM.

With `CC(=O)c1cn(CC(=O)N2[C@H](C(=O)Nc3nc(C(F)(F)F)ccc3C)C[C@@]3(C)C[C@@H]23)c2c(C)c(F)c(-c3cnc(C)nc3)cc12` [Compound 44, (1R,3S,5R)-2-(2-(3-acetyl-6-fluoro-7-methyl-5-(2-methylpyrimidin-5-yl)-1H-indol-1-yl)acetyl)-5-meth-yl-N-(3-methyl-6-(tri-fluoromethyl)pyridin-2-yl)-2-azabicyclo[3.1.0] hexane-3-carboxamide], the IC50 was < 1000 nM.

In the case of `CC(=O)c1cn(CC(=O)N2[C@H](C(=O)Nc3cncc(C(F)(F)F)n3)C[C@@]3(C)C[C@@H]23)c2c(C)cc(-c3cnc(C)nc3)cc12` [Compound 45, (1R,3S,5R)-2-(2-(3-acetyl-7-methyl-5-(2-methylpyr-imidin-5-yl)-1H-indol-1-yl)acetyl)-5-methyl-N-(6-(trifluoromethyl)pyrazin-2-yl)-2-azabicyclo[3.1.0] hexane-3-carboxamide], the IC50 is < 1000 nM.

Regarding `CC(=O)c1cn(CC(=O)N2[C@H](C(=O)Nc3nc(C(F)(F)F)ccc3C)C[C@@]3(C)C[C@@H]23)c2c(CF)cc(-c3cnc4cc(C)nn4c3)cc12` [Compound 46, (1R,3S,5R)-2-(2-(3-acetyl-7-(fluoromethyl)-5-(2-methylpyrazolo[1,5-a]pyr-imidin-6-yl)-1H-indol-1-yl)acetyl)-5-methyl-N-(3-methyl-6-(trifluorometh-yl)pyridin-2-yl)-2-azabi-cyclo[3.1.0]hexane-3-car-boxamide], the IC50 was < 1000 nM.

`CC(=O)c1cn(CC(=O)N2[C@H](C(=O)Nc3nc(Br)ccc3Cl)C[C@@]3(C)C[C@@H]23)c2c(C)cc(-c3cnc4cc(C)nn4c3)cc12` [Compound 47, (1R,3S,5R)-2-(2-(3-acetyl-7-methyl-5-(2-methylpyr-azolo[1,5-a]pyrimidin-6-yl)-1H-indol-1-yl)acetyl)-N-(6-bromo-3-chloropyr-idin-2-yl)-5-methyl-2-aza-bicyclo[3.1.0]hexane-3-carboxamide]: the IC50 is < 1000 nM.

In the case of `CC(=O)c1cn(CC(=O)N2[C@H](C(=O)Nc3nc(C(F)(F)F)ccc3C)C[C@@]3(C)C[C@@H]23)c2c(C)c(F)c(-c3cnc4cc(C)nn4c3)cc12` [Compound 49, (1R,3S,5R)-2-(2-(3-acetyl-6-fluoro-7-methyl-5-(2-methylpyrazolo[1,5-a]pyr-imidin-6-yl)-1H-indol-1-yl)acetyl)-5-methyl-N-(3-methyl-6-(trifluorometh-yl)pyridin-2-yl)-2-azabi-cyclo[3.1.0]hexane-3-car-boxamide], the IC50 is < 1000 nM.

With `CC(=O)c1cn(CC(=O)N2[C@H](C(=O)Nc3nc(Br)ccc3C)C[C@@]3(C)C[C@@H]23)c2c(C)c(F)c(-c3cnc4cc(C)nn4c3)cc12` [Compound 50, (1R,3S,5R)-2-(2-(3-acetyl-6-fluoro-7-methyl-5-(2-methylpyrazolo[1,5-a]pyr-imidin-6-yl)-1H-indol-1-yl)acetyl)-N-(6-bromo-3-methylpyridin-2-yl)-5-methyl-2-zabicyclo[3.1.0] hexane-3-carboxamide], the IC50 was < 1000 nM.

For `CC(=O)c1cn(CC(=O)N2[C@H](C(=O)Nc3nc(C(F)(F)F)ccc3Cl)C[C@@]3(C)C[C@@H]23)c2c(C)cc(-c3cnc4cc(C)nn4c3)cc12` [Compound 51, (1R,3S,5R)-2-(2-(3-acetyl-7-methyl-5-(2-methylpyr-azolo[1,5-a]pyrimidin-6-yl)-1H-indol-1-yl)acetyl)-N-(3-chloro-6-(trifluoro-methyl)pyridin-2-yl)-5-methyl-2-azabicyclo[3.1.0] hexane-3-carboxamide], the IC50 was < 1000 nM.

Regarding `COCc1ccc(C(F)(F)F)nc1NC(=O)[C@@H]1C[C@@]2(C)C[C@H]2N1C(=O)Cn1cc(C(C)=O)c2cc(-c3cnc(C)nc3)cc(C)c21` [Compound 52, (1R,3S,5R)-2-(2-(3-acetyl-7-methyl-5-(2-methylpyr-imidin-5-yl)-1H-indol-1-yl)acetyl)-N-(3-(methoxy-methyl)-6-(trifluorometh-yl)pyridin-2-yl)-5-methyl-2-azabicyclo[3.1.0]hexane-3-carboxamide], the IC50 is < 1000 nM.
